The source of these data is ChEMBL document CHEMBL1201862, “PubChem BioAssay data set” (2004).

Each structure is given as a SMILES string.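 48-hour exposure; five concentrations; linearly interpolated endpoints. GI50 is the concentration that inhibits growth by half.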 Active and inactive are the calls of the source. Rule as the data show it: active = GI50 up to about 1.1 µM and inactive = higher. Bounds are passed on as bounds.

Some test systems named below: EKVX; SR; A498; MCF7; Hs-578T; MDA-MB-231; HCT-15; TK-10; DU-145; RPMI-8226; HCT-116; OVCAR-3; SK-MEL-2; SNB-19; SNB-75; BT-549; NCI-H460; NCI-H226; SW-620; COLO 205.
Assay in all cases: growth of human tumour cells (NCI), 48 h

Regarding `O=Nc1ccc(O)c2ncccc12`, the GI50 in the assay with EKVX was 0.525 µM (active); in the assay on SR it was 0.328 µM (active); in the assay on A498 it was 18.5 µM (inactive); in the assay on MCF7, 1.76 µM (inactive); with Hs-578T it was 0.531 µM (active); in the assay on MDA-MB-231, 6.43 µM (inactive). In addition, the GI50 with HCT-15 was 2.52 µM; with TK-10 it was 14.8 µM (inactive); in the assay with DU-145, 5.7 µM (inactive); in the assay on RPMI-8226, 3.52 µM (inactive); in the assay with HCT-116, 0.822 µM (active); in the assay with OVCAR-3, 3.33 µM (inactive). Moreover, the GI50 is 2.21 µM (inactive) in the assay with SK-MEL-2; 16 µM (inactive) in the assay with SNB-19; 2.51 µM (inactive) with SNB-75; 10.5 µM (inactive) in the assay on BT-549; 1.25 µM (inactive) with NCI-H460; 19.6 µM (inactive) in the assay with NCI-H226. Besides, the GI50 in the assay on SW-620 is 4.79 µM (inactive); in the assay with COLO 205 it was 16.1 µM (inactive).

For the compound `COc1cccc(C2c3cc4c(cc3OC(N3CCOCC3)C2C)OCO4)c1O` (stereo not given), the GI50 was 9.14 µM (inactive) in the assay on EKVX; 1.23 µM (inactive) in the assay with SR; 6.27 µM (inactive) with A498; 5.14 µM (inactive) in the assay with MCF7; 1.77 µM (inactive) in the assay with Hs-578T; 11.6 µM (inactive) with MDA-MB-231. Moreover, the GI50 in the assay on HCT-15 was 3.32 µM; in the assay on TK-10 it was 8.24 µM (inactive); in the assay on DU-145 it was 4.43 µM (inactive); in the assay on RPMI-8226, 2.83 µM (inactive); in the assay on HCT-116, 3.84 µM (inactive); in the assay on OVCAR-3, 3.64 µM (inactive). Also, the GI50 in the assay with SK-MEL-2 was 7.1 µM (inactive); with SNB-19, 3.44 µM (inactive); in the assay on SNB-75, 7.29 µM (inactive); in the assay with BT-549 it was 13.9 µM (inactive); in the assay on NCI-H460, 3.55 µM (inactive); in the assay on NCI-H226 it was 4.46 µM (inactive). Moreover, the GI50 with SW-620 is 3.87 µM (inactive); in the assay with COLO 205 it was 4.28 µM (inactive).

In the case of `BrCC[N+]12CC[N+](CCBr)(CC1)C2`, the GI50 in the assay on EKVX, with SR, in the assay with A498, in the assay with MCF7, with Hs-578T and in the assay on MDA-MB-231 was > 100 µM (inactive) each time. In addition, the GI50 with HCT-15 was more than 100 µM; with TK-10 it was > 100 µM (inactive); with DU-145, > 100 µM (inactive); with RPMI-8226, > 100 µM (inactive); in the assay on HCT-116, > 100 µM (inactive); in the assay with OVCAR-3, > 100 µM (inactive). In addition, the GI50 in the assay on SK-MEL-2, in the assay with SNB-19, in the assay on SNB-75, in the assay with BT-549, in the assay with NCI-H460 and in the assay with NCI-H226 was > 100 µM (inactive) in each case. The GI50 in the assay with SW-620 and with COLO 205 was > 100 µM (inactive) each time.

In the case of `CCC(N)(C(=O)O)C(C)C` (stereo not given), the GI50 with EKVX, in the assay on SR, in the assay on A498, in the assay with MCF7, in the assay with Hs-578T and in the assay on MDA-MB-231 was > 100 µM (inactive) throughout. Moreover, the GI50 is more than 100 µM in the assay with HCT-15; > 100 µM (inactive) in the assay with TK-10; > 100 µM (inactive) with DU-145; > 100 µM (inactive) in the assay on RPMI-8226; > 100 µM (inactive) in the assay on HCT-116; > 100 µM (inactive) in the assay with OVCAR-3. Besides, the GI50 with SK-MEL-2, with SNB-19, with SNB-75, with BT-549, in the assay with NCI-H460 and in the assay with NCI-H226 was > 100 µM (inactive) each time. The GI50 with SW-620 and with COLO 205 was > 100 µM (inactive) each time.

For the compound `[Se]=P(c1ccccc1)(c1ccccc1)c1ccc(C(c2ccccc2)=P(c2ccccc2)(c2ccccc2)c2ccccc2)cc1`, the GI50 in the assay with EKVX was 1.89 µM (inactive); in the assay with SR, 0.415 µM (active); in the assay with A498, 2.76 µM (inactive); in the assay on MCF7 it was 0.695 µM (active); with Hs-578T, 0.435 µM (active); in the assay with MDA-MB-231, 0.661 µM (active). Further, the GI50 in the assay with HCT-15 was 4.55 µM; with TK-10, 1.41 µM (inactive); in the assay on DU-145, 1.24 µM (inactive); in the assay with RPMI-8226, 0.313 µM (active); in the assay on HCT-116, 0.6 µM (active); in the assay with OVCAR-3, 0.621 µM (active). Moreover, the GI50 with SK-MEL-2 was 0.957 µM (active); in the assay on SNB-19, 1.01 µM (active); in the assay on SNB-75 it was 0.431 µM (active); with BT-549 it was 0.929 µM (active); in the assay with NCI-H460, 1.28 µM (inactive); in the assay with NCI-H226, 1.31 µM (inactive). Moreover, the GI50 in the assay on SW-620 was 1.19 µM (inactive); in the assay on COLO 205, 0.308 µM (active).

With `Cn1c(=O)n(CC(Br)CBr)c(=O)n(CC(Br)CBr)c1=O` (stereo not given), the GI50 in the assay with EKVX was 25.2 µM (inactive); with SR, 18.4 µM (inactive); in the assay on A498 it was 77.4 µM (inactive); in the assay on MCF7, 45.8 µM (inactive); with Hs-578T, > 100 µM (inactive); in the assay with MDA-MB-231 it was 33.7 µM (inactive). Also, the GI50 was 36.2 µM with HCT-15; 55.5 µM (inactive) with TK-10; 71.3 µM (inactive) in the assay with DU-145; 25.1 µM (inactive) in the assay with RPMI-8226; 25.9 µM (inactive) in the assay on HCT-116; 38.5 µM (inactive) in the assay with OVCAR-3. For the same compound, the GI50 with SK-MEL-2 was 46.1 µM (inactive); in the assay with SNB-19 it was 75.7 µM (inactive); in the assay on SNB-75, 58.5 µM (inactive); with BT-549, 67.9 µM (inactive); in the assay on NCI-H460 it was 33.4 µM (inactive); with NCI-H226 it was 20.2 µM (inactive). Also, the GI50 is 30.9 µM (inactive) in the assay on SW-620 and 21 µM (inactive) in the assay on COLO 205.

With `COC(=O)C1C(O)C(C)C(O)C(C)C=C(C)C2=C3C(=C(C)C(=O)c4c(O)c(c(C)c(OC(C)=O)c43)NC(=O)C(C)=C/C=C\C(C)C(O)C(C)C1O)OCO2` (stereo not given), the GI50 was 34.3 µM (inactive) in the assay on EKVX; 19.7 µM (inactive) in the assay with SR; 29.4 µM (inactive) with A498; 25.3 µM (inactive) in the assay with MCF7; 61.2 µM (inactive) with Hs-578T; 23.8 µM (inactive) in the assay on MDA-MB-231. Moreover, the GI50 was 22.4 µM in the assay with HCT-15; 56.1 µM (inactive) in the assay on TK-10; 57.7 µM (inactive) with DU-145; 18.4 µM (inactive) in the assay with RPMI-8226; 31.8 µM (inactive) in the assay with HCT-116; 18.6 µM (inactive) with OVCAR-3. Moreover, the GI50 in the assay with SK-MEL-2 was 23.7 µM (inactive); in the assay on SNB-19 it was > 100 µM (inactive); with SNB-75 it was 12.4 µM (inactive); in the assay on BT-549 it was 19.6 µM (inactive); in the assay on NCI-H460, 67.5 µM (inactive); in the assay with NCI-H226, 55.2 µM (inactive). Also, the figures for the GI50 in the assay with SW-620 and with COLO 205 were 23.9 µM (inactive) and 19.9 µM (inactive), respectively.

As to `O=C(O)[C@@H]1NC[C@H]2C(Br)=NO[C@H]21`, the GI50 in the assay with EKVX was > 100 µM (inactive); in the assay with SR it was 23.4 µM (inactive); with A498, > 100 µM (inactive); with MCF7, 86.9 µM (inactive); with Hs-578T it was > 100 µM (inactive); with MDA-MB-231 it was > 100 µM (inactive). Moreover, the GI50 in the assay on HCT-15 was more than 100 µM; with TK-10, 94.8 µM (inactive); with DU-145, > 100 µM (inactive); with RPMI-8226, > 100 µM (inactive); in the assay on HCT-116, > 100 µM (inactive); in the assay with OVCAR-3, > 100 µM (inactive). The GI50 is > 100 µM (inactive) with SK-MEL-2; > 100 µM (inactive) with SNB-19; > 100 µM (inactive) with SNB-75; > 100 µM (inactive) in the assay on BT-549; 78.2 µM (inactive) in the assay with NCI-H460; > 100 µM (inactive) in the assay with NCI-H226. Moreover, the GI50 in the assay with SW-620 and with COLO 205 was > 100 µM (inactive) in each case.

Consider `CN(C)CCCC12CCCCC1=Nc1ccccc12` (stereo not given), for which the GI50 is > 100 µM (inactive) with EKVX; 22.5 µM (inactive) with SR; > 100 µM (inactive) with A498; > 100 µM (inactive) in the assay with MCF7; > 100 µM (inactive) in the assay on Hs-578T; > 100 µM (inactive) with MDA-MB-231. Further, the GI50 is more than 100 µM in the assay on HCT-15; > 100 µM (inactive) in the assay on TK-10; > 100 µM (inactive) in the assay with DU-145; 65.5 µM (inactive) with RPMI-8226; > 100 µM (inactive) in the assay on HCT-116; > 100 µM (inactive) in the assay with OVCAR-3. Also, the GI50 with SK-MEL-2, in the assay on SNB-19, in the assay on SNB-75, in the assay with BT-549, in the assay on NCI-H460 and in the assay with NCI-H226 was > 100 µM (inactive) each time. Besides, the GI50 was > 100 µM (inactive) in the assay with SW-620 and 48.2 µM (inactive) in the assay with COLO 205.

As for `CC(=O)NC(CCC(=O)C=[N+]=[N-])C(=O)O` (stereo not given), the GI50 in the assay with EKVX, in the assay with SR, with A498, in the assay on MCF7, in the assay with Hs-578T and in the assay on MDA-MB-231 was > 100 µM (inactive) in each case. For the same compound, the GI50 was more than 100 µM in the assay with HCT-15; > 100 µM (inactive) in the assay on TK-10; > 100 µM (inactive) with DU-145; > 100 µM (inactive) in the assay with RPMI-8226; > 100 µM (inactive) in the assay on HCT-116; > 100 µM (inactive) with OVCAR-3. Besides, the GI50 in the assay with SK-MEL-2, in the assay with SNB-19, with SNB-75, in the assay on BT-549, in the assay with NCI-H460 and in the assay with NCI-H226 was > 100 µM (inactive) each time. Besides, the GI50 in the assay on SW-620 and with COLO 205 was > 100 µM (inactive) throughout.
